In US20210188775A1, “CARBOXAMIDE AND SULFONAMIDE DERIVATIVES USEFUL AS TEAD MODULATORS” (Genentech, Inc., priority 2018, published 2021):
pIC50: −log10 of the molar value.

Legend:
TEAD2 = TEAD2 (Homo sapiens, UniProt Q15562); experiment: TEAD lipid assay (Lipid FP, Bodipy-C16 probe displacement); type: binding; conditions: fluorescence polarization, His-tagged TEAD, 60 minutes incubation
Method: (§1) A TEAD lipid assay was done according to the following method. His-tagged TEAD proteins were pre-incubated with a Bodipy-C16 FP probe (Life Technologies Cat #D3821) for 30 minutes at room temperature to pre-form TEAD-probe complex. […] Duplicate 10 point dose response curves were generated for each test compound. The potency of compounds as TEAD lipid pocket binders was determined by IC50 value generated using a non-linear 4 parameter curve fit.

TEAD3 = TEAD3 (Homo sapiens, UniProt Q99594); experiment: as above; type: binding; conditions: fluorescence polarization, His-tagged TEAD, 60 minutes incubation
Chain of TEAD3 (Q99594 whole entry, species assumed): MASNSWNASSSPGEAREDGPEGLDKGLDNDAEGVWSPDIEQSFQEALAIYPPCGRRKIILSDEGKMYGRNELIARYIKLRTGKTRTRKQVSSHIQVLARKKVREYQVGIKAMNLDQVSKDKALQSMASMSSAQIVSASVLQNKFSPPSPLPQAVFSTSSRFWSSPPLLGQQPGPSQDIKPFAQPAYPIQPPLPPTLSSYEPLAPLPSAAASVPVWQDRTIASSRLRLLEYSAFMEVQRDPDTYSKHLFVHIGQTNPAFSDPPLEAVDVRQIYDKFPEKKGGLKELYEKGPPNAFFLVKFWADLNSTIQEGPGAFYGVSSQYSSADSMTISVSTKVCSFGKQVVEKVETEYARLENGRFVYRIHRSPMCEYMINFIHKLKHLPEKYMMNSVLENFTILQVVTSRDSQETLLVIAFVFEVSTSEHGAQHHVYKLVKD
Method: as §1

Chain of TEAD2 (Q15562 whole entry, species assumed): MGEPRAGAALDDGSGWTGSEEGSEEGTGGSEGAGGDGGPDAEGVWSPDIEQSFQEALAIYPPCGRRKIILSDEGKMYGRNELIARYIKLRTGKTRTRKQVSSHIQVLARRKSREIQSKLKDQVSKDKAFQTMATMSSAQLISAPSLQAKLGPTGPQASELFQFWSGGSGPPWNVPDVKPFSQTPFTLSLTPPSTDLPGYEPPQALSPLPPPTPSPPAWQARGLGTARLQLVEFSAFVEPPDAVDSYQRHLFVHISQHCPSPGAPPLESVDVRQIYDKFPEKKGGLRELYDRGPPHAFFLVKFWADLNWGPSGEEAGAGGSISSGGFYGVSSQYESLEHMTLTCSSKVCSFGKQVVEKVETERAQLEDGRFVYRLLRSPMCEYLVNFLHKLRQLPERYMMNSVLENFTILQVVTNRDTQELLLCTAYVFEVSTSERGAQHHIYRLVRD

Row | SMILES | pIC50 (TEAD2) | pIC50 (TEAD3)
1 | COc1cnc(NS(C)(=O)=O)cc1/C=C/C1(F)CCC(C(F)(F)F)CC1 (stereo not shown) [Compound 21, N-[4-[(E)-2-[1-fluoro-4-(trifluoromethyl)cyclohexyl]vinyl]-5-methoxy-2-pyridyl]methanesulfonamide] | 6.07 | 6.20
2 | COc1ccc(NS(=O)(=O)C2CC2)cc1/C=C/c1ccc(Cl)cc1 [Compound 49, N-[3-[(E)-2-(4-chlorophenyl)vinyl]-4-methoxy-phenyl]cyclopropanesulfonamide] | 6.12 | 5.72
3 | COc1ncc(NS(C)(=O)=O)cc1/C=C/C1CCC(F)(F)CC1 [Compound 14, N-[5-[(E)-2-(4,4-difluorocyclohexyl)vinyl]-6-methoxy-3-pyridyl]methanesulfonamide] | 6.42 | 6.37
4 | CC[C@H](CO)NC(=O)c1cnc(OC)c(/C=C/C2CCC(F)(F)CC2)c1 (racemic) [Compound 35, 6-methoxy-5-[rac-(E)-2-(4,4-difluorocyclohexyl)vinyl]-N-[rac-(1R)-1-(hydroxymethyl)propyl]pyridine-3-carboxamide] | 5.72 | 5.85
5 | CC[C@H](CO)NC(=O)c1cc(/C=C/C2CC3(CC3)C2)c(OC)cn1 [Compound 44, (E)-N-(1-hydroxybutan-2-yl)-5-methoxy-4-(2-(spiro[2.3]hexan-5-yl)vinyl)picolinamide] | 6.08 | 6.15
6 | COc1ccc(NS(=O)(=O)C2CC2)cc1/C=C/C1CCCCC1 [Compound 28, N-[3-[(E)-2-cyclohexylvinyl]-4-methoxy-phenyl]cyclopropanesulfonamide] | 6.05 | 6.00
7 | Cn1cc(Cc2ccc(Cl)cc2)c2cc(NS(C)(=O)=O)ccc21 [Compound 24, N-[3-[(4-chlorophenyl)methyl]-1-methyl-indol-5-yl]methanesulfonamide] | 6.44 | 6.11
8 | COc1ccc(NS(C)(=O)=O)cc1C1CC1C1CCCCC1 (single isomer, unassigned) [Compound 1B, N-(3-(2-Cyclohexylcyclopropyl)-4-methoxyphenyl)methanesulfonamide] | 6.00 | 5.74
9 | CC[C@H](CO)NC(=O)c1cc(/C=C/C2CCC(F)(F)CC2)c(OC)cn1 (racemic) [Compound 41, 5-methoxy-4-[rac-(E)-2-(4,4-difluorocyclohexyl)vinyl]-N-[rac-(1R)-1-(hydroxymethyl)propyl]pyridine-2-carboxamide] | 5.74 | 5.96
10 | COc1ccc(NS(C)(=O)=O)cc1/C=C/C1CCCC1 [Compound 3, N-[3-[(E)-2-cyclopentylvinyl]-4-methoxy-phenyl]methanesulfonamide] | 6.24 | 5.74
11 | CC[C@H](CO)NC(=O)c1cc(/C=C/C2CC3(CC3)C2)c(OC)nn1 [Compound 47, (E)-N-(1-hydroxybutan-2-yl)-6-methoxy-5-(2-(spiro[2.3]hexan-5-yl)vinyl)pyridazine-3-carboxamide] | 5.74 | 6.07
12 | C=CS(=O)(=O)Nc1ccc(OC)c(/C=C/c2ccc(Cl)cc2)c1 [Compound 34, N-[3-[(E)-2-(4-chlorophenyl)vinyl]-4-methoxy-phenyl]ethenesulfonamide] | 6.02 | 5.92
13 | COc1ncc(NS(C)(=O)=O)cc1/C=C/C1CC2(CC2)C1 [Compound 17, N-[6-methoxy-5-[(E)-2-spiro[2.3]hexan-5-ylvinyl]-3-pyridyl]methanesulfonamide] | 6.09 | 5.74
14 | COc1nnc(NS(C)(=O)=O)cc1/C=C/C1CCC(C(F)(F)F)CC1 (stereo not shown) [Compound 45, (E)-N-(6-methoxy-5-(2-(4-(trifluoromethyl)cyclohexyl)vinyl)pyridazin-3-yl)methanesulfonamide] | 5.80 | 5.77
15 | COc1ccc(NS(C)(=O)=O)cc1/C=C/C1CCC(F)(F)CC1 [Compound 2, N-[3-[(E)-2-(4,4-difluorocyclohexyl)vinyl]-4-methoxy-phenyl]methanesulfonamide] | 6.00 | 5.82
16 | COc1nc(F)c(NS(C)(=O)=O)cc1/C=C/C1CCCCC1 [Compound 38, N-[5-[(E)-2-cyclohexylvinyl]-2-fluoro-6-methoxy-3-pyridyl]methanesulfonamide] | 5.96 | 5.70
17 | COc1ccc(NS(C)(=O)=O)cc1[C@H]1C[C@H](c2cccc(F)c2)C1 (single isomer, unassigned) [Compound 8A] | 6.13 | 5.85
18 | COc1ccc(NS(C)(=O)=O)cc1/C=C/C1CCC(C)CC1 (single isomer, unassigned) [Compound 6A, (E)-N-(4-Methoxy-3-(2-(4-methylcyclohexyl)vinyl)phenyl) methanesulfonamide] | 6.02 | 5.77
19 | COc1ccc(C(=O)NC(C)C)cc1[C@H]1C[C@H](c2ccc(Cl)cc2)C1 (single isomer, unassigned) [Compound 9A] | 6.11 | 5.80

Row | SMILES | pIC50 (TEAD2) | pIC50 (TEAD3)
20 | COc1ccc(NS(C)(=O)=O)cc1/C=C/CC1CCCCC1 [Compound 4, N-[3-[(E)-3-cyclohexylprop-1-enyl]-4-methoxy-phenyl]methanesulfonamide] | 6.02 | 5.89
21 | CCOc1ncc(NS(C)(=O)=O)cc1/C=C/C1CCC(F)(F)CC1 [Compound 18, N-[5-[(E)-2-(4,4-difluorocyclohexyl)vinyl]-6-ethoxy-3-pyridyl]methanesulfonamide] | 5.72 | 5.92
22 | COc1ncc(NS(=O)(=O)CC(C)(C)C#N)cc1/C=C/C1CCC(F)(F)CC1 [Compound 50, 2-cyano-N-[5-[(E)-2-(4,4-difluorocyclohexyl)vinyl]-6-methoxy-3-pyridyl]-2-methyl-propane-1-sulfonamide] | 5.89 | 5.96
23 | CC[C@H](CO)NC(=O)c1cc(/C=C/[C@H]2CC[C@H](C(F)(F)F)CC2)c(OC)nn1 [Compound 46, (E)-N-(1-hydroxybutan-2-yl)-6-methoxy-5-(2-(4-(trifluoromethyl)cyclohexyl)vinyl) pyridazine-3-carboxamide] | 5.80 | 5.80
24 | COc1ccc(C(=O)NC(C)C)cc1-c1ccc(C2CC2)cc1 [Compound 26, 3-(4-cyclopropylphenyl)-N-isopropyl-4-methoxy-benzamide] | 5.70 | 5.77
25 | COc1ccc(C(N)=O)cc1/C=C/C1CCCCC1 [Compound 31, 3-[(E)-2-cyclohexylvinyl]-4-methoxy-benzamide] | 6.11 | 6.01
26 | COc1ncc(NS(C)(=O)=O)cc1/C=C/[C@H]1CC[C@H](C(F)(F)F)CC1 [Compound 16, N-[6-methoxy-5-[(E)-2-[4-(trifluoromethyl)cyclohexyl]vinyl]-3-pyridyl]methanesulfonamide] | 6.16 | 5.92
27 | COc1cc(F)c(NS(=O)(=O)C2CC2)cc1-c1ccc(C(C)C)cc1 [Compound 11, N-[2-fluoro-5-(4-isopropylphenyl)-4-methoxy-phenyl]cyclopropanesulfonamide] | 6.25 | 6.20
28 | COc1ccc(NS(=O)(=O)C2CC2)cc1-c1ccc(C(C)C)cc1 [Compound 25, N-[3-(4-isopropylphenyl)-4-methoxy-phenyl]cyclopropanesulfonamide] | 6.42 | 5.92
29 | COc1cc(F)c(NS(C)(=O)=O)cc1-c1ccc(C(C)C)cc1 [Compound 12, N-[2-fluoro-5-(4-isopropylphenyl)-4-methoxy-phenyl]methanesulfonamide] | 6.23 | 6.07
30 | COc1ccc(C(=O)NC(C)C)cc1/C=C/C1CCCCC1 [Compound 29] | 6.00 | 5.96
31 | COc1ncc(NS(C)(=O)=O)cc1/C=C/C1CC(C(F)(F)F)C1 (racemic) [Compound 37, N-[6-methoxy-5-[rac-(E)-2-[3-(trifluoromethyl)cyclobutyl]vinyl]-3-pyridyl]methanesulfonamide] | 6.12 | 5.89
32 | CC[C@H](CO)NC(=O)c1cc(/C=C/[C@H]2CC[C@H](C(F)(F)F)CC2)c(OC)cn1 [Compound 42, (E)-N-(1-hydroxybutan-2-yl)-5-methoxy-4-(2-(4-(trifluoromethyl)cyclohexyl)vinyl) picolinamide] | 6.28 | 6.11
33 | COc1ncc(NS(C)(=O)=O)cc1C1CC(c2ccc(Cl)cc2)C1 (stereo not shown) [Compound 13, N-[5-[3-(4-chlorophenyl)cyclobutyl]-6-methoxy-3-pyridyl]methanesulfonamide] | 6.14 | 5.74
34 | COc1ncc(NS(C)(=O)=O)cc1/C=C/C1CC(C)(C)C1 [Compound 36, N-[5-[(E)-2-(3,3-dimethylcyclobutyl)vinyl]-6-methoxy-3-pyridyl]methanesulfonamide] | 6.02 | 5.85
35 | COc1ccc(NS(=O)(=O)C2CC2)cc1/C=C/Cc1ccccc1 [Compound 33, N-[4-methoxy-3-[(E)-3-phenylprop-1-enyl]phenyl]cyclopropanesulfonamide] | 6.08 | 5.92
36 | COc1ccc(C(=O)NC(C)CCO)cc1/C=C/c1ccc(Cl)cc1 (single isomer, unassigned) [Compound 51, 3-[(E)-2-(4-chlorophenyl)vinyl]-N-(3-hydroxy-1-methyl-propyl)-4-methoxy-benzamide] | 6.02 | 5.70
37 | COc1cnc(C(=O)NC[C@H](O)CO)cc1/C=C/C1CC2(CC2)C1 [Compound 43, (E)-N-(2,3-dihydroxypropyl)-5-methoxy-4-(2-(spiro[2.3]hexan-5-yl)vinyl)picolinamide] | 6.01 | 5.77
38 | COc1nc(F)c(NS(C)(=O)=O)cc1/C=C/CC1CCCC1 [Compound 40, N-[5-[(E)-3-cyclopentylprop-1-enyl]-2-fluoro-6-methoxy-3-pyridyl]methanesulfonamide] | 6.19 | 6.19
